Test results from PMC3285657, “Biophysical Characterization and Membrane Interaction of the Two Fusion Loops of Glycoprotein B from Herpes Simplex Type I Virus” (PLoS ONE, 2012).
Residues, ends and D or L forms follow the SMILES beside them.

B1: HB168–186 (peptide)
peptide: VTVSQVWFGHRYSQFMGIF
notes: source: synthetic peptide (solid-phase Fmoc method), purified (purity higher than 98%)

Key:
[1] = Quenching of tryptophan/tyrosines by acrylamide (Stern-Volmer); assay type: physicochemical; details: peptide 1 µM; for Ksv (M^−1) in buffer: absence of liposomes, F0/F = 1+Ksv [Q]; for Ksv (M^−1) in LUVs: presence of liposomes, peptide/lipid molar ratio 1/200
Excerpt: The observed changes in the characteristics of the tryptophan/tyrosine emission upon binding of peptides HB168–186 and HB254–270 to lipid vesicles indicate their insertion into the hydrophobic region of the bilayers. We also studied the accessibility of the tryptophan/tyrosine residues of membrane-bound peptides towards acrylamide, a neutral, water-soluble, highly efficient quenching molecule, which is unable to penetrate into the hydrophobic core of the lipid bilayer. The more deeply a tryptophan/tyrosine residue is buried, the less strongly it can be quenched by acrylamide. Stern-Volmer plots for the quenching of tryptophan by acrylamide, recorded in the absence and presence of lipid vesicles, are depicted in Figure 6. Fluorescence of tryptophan/tyrosine decreased in a concentration-dependent manner by the addition of acrylamide to the peptide solution both in the absence and presence of liposomes, without other effects on the spectra. However, we can observe a substantial difference between the two peptides.
Aliquots of a 4 M solution of the water-soluble quencher were added to the solution containing the peptide (1 µM) in the absence or presence of liposomes at a peptide/lipid molar ratio of 1/200. The maximal concentration of acrylamide is 0.2 mmol/ml. Tryptophan fluorescence was measured with an excitation wavelength of 295 nm, to reduce acrylamide absorbance (and the resulting inner filter effect), and emission at a wavelength of 340 nm, to eliminate interference from the Raman band of water and tyrosine fluorescence was measured with an excitation wavelength of 274 nm, and emission at a wavelength of 305. The data were analyzed according to the Stern-Volmer equation [68], F0/F = 1+Ksv [Q], where F0 and F represent the fluorescence intensities in the absence and the presence of the quencher (Q), respectively, and Ksv is the Stern-Volmer quenching constant, which is a measure of the accessibility of tryptophan to acrylamide. […] Accordingly, Ksv is determined by the amount of non-vesicle-associated free peptide as well as the fraction of the peptide residing at the surface of the bilayer.

[2] = Thioflavin T assay for peptide aggregation; assay type: physicochemical; details: for Aggregation state in the presence of DOPC/Chol LUVs (ThT fluorescence) / Aggregation state in aqueous medium (ThT fluorescence): peptide 4 µM, 100 mM NaCl, 10 mM Tris–HCl, 25 µM ThT, pH 7.4, 37°C; for Aggregation state in the presence of DOPC/Chol LUVs (ThT fluorescence): 0.1 mM phospholipid; for Aggregation state in aqueous medium (ThT fluorescence): ex 450 nm / em 482 nm; for Oligomerization in aqueous solution / Oligomerization inside / interacting with the membrane: summary in discussion
Experimental: The peptide's aggregation state in buffer and DOPC/Chol LUVs was assayed using ThT [36], in order to know the possible effects of the peptide aggregation on the membranes. As observed in Figure 4 A–B, the two peptides present a completely different behaviour.
Peptide aggregation was assayed using Thioflavin T (ThT). ThT associates rapidly with aggregated peptides giving rise to a new excitation maximum at 450 nm and an enhanced emission at 482 nm. LUVs in 100 mM NaCl, 10 mM Tris–HCl, 25 µM ThT, pH 7.4 (final phospholipid concentration of 0.1 mM) were titrated with a peptide concentration of 1, 4, 8, 12, 16, 20 µM. Fluorescence was measured before and after the desired amount of peptide was added into the cuvette using a Varian Cary Eclipse fluorescence spectrometer at 37°C. Samples were excited at 450 nm (slit width, 5 nm) and fluorescence emission was recorded at 482 nm (slit width, 5 nm). Aggregation was quantified according to the equation, %A = (Ff−F0)/(Fmax−F0)×100, where Ff is the value of fluorescence after peptide addition, F0 the initial fluorescence in the absence of peptide and Fmax is the fluorescence maximum obtained immediately after peptide addition. Kinetic data were obtained at a concentration of 4 µM.

[3] = Lipid mixing assay (NBD-PE/Rho-PE resonance energy transfer); details: 0.1 mM lipid, 37°C
Experimental: To investigate the fusogenicity of gB peptides, NBD and Rho labelled PE were used as the donor and acceptor of fluorescence energy transfer. A population of LUVs labelled with both was mixed with a population of unlabelled LUVs and increasing amounts of peptides were added. […] The dependence of the extent of lipid mixing on the peptide to lipid molar ratio was analysed. The fusogenic capacity was monitored by measuring their ability to induce lipid mixing of model membranes composed of DOPG, DOPG/Chol (3/2), DOPC, DOPC/Chol (3/2), POPC/Chol (3/2), and POPC/Chol/SM at various ratios (4/1/1, 2/1/1, 1/1/1).
Figure 2 Ability of peptides to induce lipid mixing. Peptide-promoted membrane fusion as determined by lipid mixing; peptide aliquots were added to 0.1 mM LUVs, containing 0.6% NBD and 0.6% Rho. The increase in fluorescence was measured after the addition of peptide aliquots; reduced Triton-X-100 (0.05% v/v) was referred to as 100% of fusion. In figure is reported the dose dependence of lipid mixing at 37°C: panels A and B HB168–186 and HB254–270 in LUVs of different composition; panels C and D HB168–186 and HB254–270 in LUVs mimicking lipid rafts; panel E HB168–186, HB254–270 and shorter versions in DOPC/Chol LUVs; panel F equimolecular mixtures of peptides HB168–186 and HB254–270 in DOPC/Chol (3/2) and POPC/Chol/SM (2/1/1).
Membrane lipid mixing was monitored using the resonance energy transfer assay (RET) reported by Struck et al.. The assay is based on the dilution of the NBD-PE (donor) and Rho-PE (acceptor). Dilution due to membrane mixing results in an increase in NBD-PE fluorescence. The change in donor emission was monitored as aliquots of peptides were added to vesicles. […] The fluorescence scale was calibrated such that the zero level corresponded to the initial residual fluorescence of the labelled vesicles and the 100% value corresponding to complete mixing of all lipids in the system was set by the fluorescence intensity of vesicles upon the addition of Triton X-100 (0.05% v/v) at the same total lipid concentrations of the fusion assay. […]

[4] = target: the molecule itself; assay: thioflavin T fluorescence (peptide aggregation)

Molecule | Ksv (M^−1) in buffer [1] [M⁻¹] | Ksv (M^−1) in LUVs [1] [M⁻¹] | Aggregation state in the presence of DOPC/Chol LUVs (ThT fluorescence) [2] | Aggregation state in aqueous medium (ThT fluorescence) [2] | Oligomerization in aqueous solution [2] | Oligomerization inside / interacting with the membrane [2] | Level of fusion (lipid mixing) in DOPC/Chol LUVs [3] | also measured
CC(C)[C@H](NC(=O)[C@H](CCCNC(=N)N)NC(=O)[C@H](CO)NC(=O)[C@@H]1CCCN1C(=O)[C@H](CC(N)=O)NC(=O)[C@@H](N)Cc1ccc(O)cc1)C(=O)N[C@@H](CCC(=O)O)C(=O)N[C@@H](C)C(=O)N[C@@H](Cc1ccccc1)C(=O)N[C@@H](Cc1c[nH]cn1)C(=O)N[C@@H](CCCNC(=N)N)C(=O)N[C@@H](Cc1ccc(O)cc1)C(=O)NCC(=O)N[C@H](C(=O)N[C@H](C(=O)N[C@H](C(=O)N[C@@H](CC(N)=O)C(=O)O)C(C)C)[C@@H](C)O)[C@@H](C)O [HB254–270] (H-YNPSRVEAFHRYGTTVN-OH) | 71.1 ± 1.1 | 8.5 ± 0.1 | not aggregated | not aggregated | not oligomerized | able to oligomerize | – | –
CC(C)[C@H](NC(=O)[C@@H](N)CCCNC(=N)N)C(=O)N[C@@H](CCC(=O)O)C(=O)N[C@@H](C)C(=O)N[C@@H](Cc1ccccc1)C(=O)N[C@@H](Cc1c[nH]cn1)C(=O)N[C@@H](CCCNC(=N)N)C(=O)N[C@@H](Cc1ccc(O)cc1)C(=O)O [HB258–265] (H-RVEAFHRY-OH) | – | – | – | – | – | – | lower levels of fusion compared to longer sequences | –
CC[C@H](C)[C@H](NC(=O)CNC(=O)[C@H](CCSC)NC(=O)[C@H](Cc1ccccc1)NC(=O)[C@H](CCC(N)=O)NC(=O)[C@H](CO)NC(=O)[C@H](Cc1ccc(O)cc1)NC(=O)[C@H](CCCNC(=N)N)NC(=O)[C@H](Cc1c[nH]cn1)NC(=O)CNC(=O)[C@H](Cc1ccccc1)NC(=O)[C@H](Cc1c[nH]c2ccccc12)NC(=O)[C@@H](NC(=O)[C@H](CCC(N)=O)NC(=O)[C@H](CO)NC(=O)[C@@H](NC(=O)[C@@H](NC(=O)[C@@H](N)C(C)C)[C@@H](C)O)C(C)C)C(C)C)C(=O)N[C@@H](Cc1ccccc1)C(=O)O [HB168–186] (H-VTVSQVWFGHRYSQFMGIF-OH) | 8.3 ± 0.2 | 6.4 ± 0.4 | lower aggregation | already aggregated | high tendency to oligomerize | high tendency to oligomerize | – | Aggregation as a function of peptide concentration (ThT fluorescence) ([2]; buffer and DOPC/Chol LUVs, high concentrations (titration 1, 4, 8, 12, 16, 20 µM), 37°C): aggregated both in the aqueous medium and in LUVs; Fusogenic ability (lipid mixing) ([3]; LUVs of DOPG, DOPG/Chol, DOPC, DOPC/Chol, POPC/Chol, Triton X-100 = 100%, at least three repeats averaged): higher fusogenic ability
CC(C)[C@H](N)C(=O)N[C@@H](Cc1c[nH]c2ccccc12)C(=O)N[C@@H](Cc1ccccc1)C(=O)NCC(=O)N[C@@H](Cc1c[nH]cn1)C(=O)N[C@@H](CCCNC(=N)N)C(=O)N[C@@H](Cc1ccc(O)cc1)C(=O)O [HB173–179] (H-VWFGHRY-OH) | – | – | – | – | – | – | lower levels of fusion compared to longer sequences | –
B1 | – | – | – | – | – | – | – | binding result [4]: binds
